Measured values: patent publication US12721838B2 (Henry Ford Health System, priority 2020, dated 2026)

Target: T1, Trib2-Luciferase (Luc-Trib2) fusion (Homo sapiens, UniProt Q92519)
T1 sequence (Q92519 with tags, fused parts or gaps): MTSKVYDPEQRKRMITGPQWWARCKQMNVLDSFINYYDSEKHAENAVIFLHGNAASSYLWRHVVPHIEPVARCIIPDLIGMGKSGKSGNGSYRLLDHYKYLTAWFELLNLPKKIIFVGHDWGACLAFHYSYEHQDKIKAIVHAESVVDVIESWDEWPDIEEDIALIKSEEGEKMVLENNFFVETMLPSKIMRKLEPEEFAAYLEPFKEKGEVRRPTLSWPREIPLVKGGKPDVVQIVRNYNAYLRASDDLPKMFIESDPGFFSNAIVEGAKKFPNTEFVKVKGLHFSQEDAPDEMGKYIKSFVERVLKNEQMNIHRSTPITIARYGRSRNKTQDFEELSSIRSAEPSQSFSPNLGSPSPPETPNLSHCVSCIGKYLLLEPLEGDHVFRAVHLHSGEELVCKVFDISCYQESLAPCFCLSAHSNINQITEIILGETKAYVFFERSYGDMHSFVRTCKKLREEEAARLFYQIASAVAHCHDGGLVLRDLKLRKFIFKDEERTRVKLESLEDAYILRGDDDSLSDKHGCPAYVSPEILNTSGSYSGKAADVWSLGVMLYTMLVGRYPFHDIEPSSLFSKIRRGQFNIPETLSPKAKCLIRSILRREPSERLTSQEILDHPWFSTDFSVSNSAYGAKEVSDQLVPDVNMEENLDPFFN
Test: cell-based
Settings: HFF, read-out: Luciferase activity (%)

Structure (SMILES)	activity at 10 µM [%]
CN1CCC(=C2c3ccccc3CCn3c(C=O)cnc32)CC1 [Alcaftadine]	100
C=CCc1ccccc1OCC(O)CNC(C)C (centres unmarked) [Alprenolol]	91
CCOC(=O)OC(C)OC1=C(C(=O)Nc2ccccn2)N(C)S(=O)(=O)c2ccccc21 (centres unmarked) [Ampiroxicam]	28
O=C1CN2Cc3c(ccc(Cl)c3Cl)N=C2N1 [Anagrelide]	92
CN1[C@@H]2CC[C@H]1C[C@@H](OC(=O)C(CO)c1ccccc1)C2 (some centres unmarked) [Atropine]	67
CN1C(=O)COc2c(C(=O)NC3CN4CCC3CC4)cc(Cl)cc21 (centres unmarked) [Azasetron]	100
O=C(O)CCNC(=O)c1ccccc1 [Betamipron]	87
CCCC1O[C@@H]2C[C@H]3[C@@H]4CCC5=CC(=O)C=C[C@]5(C)[C@H]4[C@@H](O)C[C@]3(C)[C@]2(C(=O)CO)O1 (some centres unmarked) [Budesonide]	83
CS(=O)(=O)OCCCCOS(C)(=O)=O [Busulfan]	100
C[C@@](Cc1ccc(O)c(O)c1)(NN)C(=O)O [Carbidopa]	92
O=C(O)CCCc1ccc(N(CCCl)CCCl)cc1 [Chlorambucil]	96
CC[C@H]1OC(=O)[C@H](C)[C@@H](O[C@H]2C[C@@](C)(OC)[C@@H](O)[C@H](C)O2)[C@H](C)[C@@H](O[C@@H]2O[C@H](C)C[C@H](N(C)C)[C@H]2O)[C@](C)(OC)C[C@@H](C)C(=O)[C@H](C)[C@@H](O)[C@]1(C)O [Clarithromycin]	97
COc1cc(N)c(Cl)cc1C(=O)NC1CCN(Cc2ccccc2)CC1 [Clebopride]	100
CC(C)(Oc1ccc(Cl)cc1)C(=O)O [Clofibric acid]	87
O=C(O)c1cc(=O)c2c(OCC(O)COc3cccc4oc(C(=O)O)cc(=O)c34)cccc2o1 [Cromolyn]	93
CC(C)(C)c1nc(-c2cccc(NS(=O)(=O)c3c(F)cccc3F)c2F)c(-c2ccnc(N)n2)s1 [Dabrafenib]	72
CN1C[C@@H]2C[C@H]1CN2c1cc2c(cc1F)c(=O)c(C(=O)O)cn2C1CC1 [Danofloxacin]	81
CN(C)[C@@H](CCOc1cccc2ccccc12)c1ccccc1 [Dapoxetine]	88
C[C@@H](CN1CC(=O)NC(=O)C1)N1CC(=O)NC(=O)C1 [Dexrazoxane]	100
OCCN(CCO)c1nc(N2CCCCC2)c2nc(N(CCO)CCO)nc(N3CCCCC3)c2n1 [Dipyridamole]	98
CC[C@H]1OC(=O)[C@H](C)[C@@H](O[C@H]2C[C@@](C)(OC)[C@@H](O)[C@H](C)O2)[C@H](C)[C@@H](O[C@@H]2O[C@H](C)C[C@H](N(C)C)[C@H]2O)[C@](C)(O)C[C@@H](C)[C@@H]2N[C@@H](COCCOC)O[C@H]([C@H]2C)[C@]1(C)O [Dirithromycin]	100
COc1cccc2c1C(=O)c1c(O)c3c(c(O)c1C2=O)C[C@@](O)(C(=O)CO)C[C@@H]3O[C@H]1C[C@H](N)[C@H](O)[C@H](C)O1 [Doxorubicin]	28
C[C@H]1c2cccc(O)c2C(=O)C2=C(O)[C@]3(O)C(=O)C(C(N)=O)=C(O)[C@@H](N(C)C)[C@@H]3[C@@H](O)[C@@H]21 [Doxycycline]	91
O=C(CCCN1CC=C(n2c(=O)[nH]c3ccccc32)CC1)c1ccc(F)cc1 [Droperidol]	100
O=C1Nc2ccc(Cl)cc2[C@@](C#CC2CC2)(C(F)(F)F)O1 [Efavirenz]	89

Structure (SMILES)	activity at 10 µM [%]
CC1=C(C(=O)OCCN(Cc2ccccc2)c2ccccc2)C(c2cccc([N+](=O)[O-])c2)C(P2(=O)OCC(C)(C)CO2)=C(C)N1 (centres unmarked) [Efonidipine]	98
CC(/C=C1\SC(=S)N(CC(=O)O)C1=O)=C\c1ccccc1 [Epalrestat]	53
C#Cc1cccc(Nc2ncnc3cc(OCCOC)c(OCCOC)cc23)c1 [Erlotinib]	50
C[C@]12CC[C@@H]3c4ccc(O)cc4CC[C@H]3[C@@H]1CCC2=O [Estrone]	82
CC[C@@H](CO)NCCN[C@@H](CC)CO [Ethambutol]	98
CCOC(=O)c1cncn1[C@H](C)c1ccccc1 [Etomidate]	100
NC(N)=Nc1nc(CSCCC(N)=NS(N)(=O)=O)cs1 [Famotidine]	100
CC(C)OC(=O)C(C)(C)Oc1ccc(C(=O)c2ccc(Cl)cc2)cc1 [Fenofibrate]	92
CCCCc1nc(C)c(CC(=S)N(C)C)c(=O)n1Cc1ccc(-c2ccccc2-c2nnn[nH]2)cc1 [Fimasartan]	88
CCCCCCCCc1ccc(CCC(N)(CO)CO)cc1 [Fingolimod]	80
CC(=O)OCC(=O)[C@@]12OC(C)(C)O[C@@H]1C[C@H]1[C@@H]3C[C@H](F)C4=CC(=O)C=C[C@]4(C)[C@@]3(F)[C@@H](O)C[C@@]12C [Fluocinonide]	78
N=C(N)NC(=O)Cc1c(Cl)cccc1Cl [Guanfacine]	100
CC(C)C(=O)c1c(C(C)C)nn2ccccc12 [Ibudilast]	85
CN(C)CCCN1c2ccccc2CCc2ccccc21 [Imipramine]	86
CCc1c2c(nc3ccc(OC(=O)N4CCC(N5CCCCC5)CC4)cc13)-c1cc3c(c(=O)n1C2)COC(=O)[C@]3(O)CC [Irinotecan]	85
O[C@@H]1CO[C@H]2[C@@H]1OC[C@@H]2O [Isosorbide]	91
Cc1c(OCC(F)(F)F)ccnc1C[S+]([O-])c1nc2ccccc2[nH]1 (centres unmarked) [Lansoprazole]	78
C[N+](C)(C)C[C@H](O)CC(=O)[O-] [Levocarnitine]	84
CCOC(=O)CC(SP(=S)(OC)OC)C(=O)OCC (centres unmarked) [Malathion]	91
Cc1cnc(NC(=O)C2=C(O)c3ccccc3S(=O)(=O)N2C)s1 [Meloxicam]	100
CC(=O)OC(C)C[N+](C)(C)C (centres unmarked) [Methacholine]	99
Cc1cccc(C)c1OCC(C)N (centres unmarked) [Mexiletine]	86
CN1CCN2c3ccccc3Cc3ccccc3C2C1 (centres unmarked) [Mianserin]	55
CCN(CC)C(=O)C1(c2ccccc2)CC1CN (centres unmarked) [Milnacipran]	85
Cc1cc(-c2ccccc2)nnc1NCCN1CCOCC1 [Minaprine]	79

Structure (SMILES)	activity at 10 µM [%]
Cc1ccccc1C(=O)Nc1ccc(C(=O)N2CCCC(N(C)C)c3ccccc32)cc1 (centres unmarked) [Mozavaptan]	86
CC1CCc2c(N3CCC(O)CC3)c(F)cc3c(=O)c(C(=O)O)cn1c23 (centres unmarked) [Nadifloxacin]	96
O=C(Nc1ccc([N+](=O)[O-])cc1Cl)c1cc(Cl)ccc1O [Niclosamide]	62
Cc1cn(-c2cc(NC(=O)c3ccc(C)c(Nc4nccc(-c5cccnc5)n4)c3)cc(C(F)(F)F)c2)cn1 [Nilotinib]	99
COC(=O)C1=C(C#N)NC(C)=C(C(=O)OC(C)C)C1c1cccc([N+](=O)[O-])c1 (centres unmarked) [Nilvadipine]	89
COc1ccc2c(c1OC)C(=O)O[C@@H]2[C@H]1c2c(cc3c(c2OC)OCO3)CCN1C [Noscapine]	100
CCCc1nc(C(C)(C)O)c(C(=O)O)n1Cc1ccc(-c2ccccc2-c2nnn[nH]2)cc1 [Olmesartan]	80
NCCC[C@H](NC(=O)[C@@H]1CCCN1C(=O)[C@@H]1CSSC[C@H](N)C(=O)N[C@@H](Cc2ccc(O)cc2)C(=O)N[C@@H](Cc2ccccc2)C(=O)N[C@@H](CCC(N)=O)C(=O)N[C@@H](CC(N)=O)C(=O)N1)C(=O)NCC(N)=O [Ornipressin]	27
CC(=O)N1C[C@H](O)C[C@H]1C(=O)O [Oxaceprol]	100
Fc1ccc([C@@H]2CCNC[C@H]2COc2ccc3c(c2)OCO3)cc1 [Paroxetine]	93
Cc1cccn2c(=O)c(-c3nnn[nH]3)cnc12 [Pemirolast]	88
OC1(c2ccc(Cl)c(C(F)(F)F)c2)CCN(CCCC(c2ccc(F)cc2)c2ccc(F)cc2)CC1 [Penfluridol]	71
c1cc(CN2CCCNCCNCCCNCC2)ccc1CN1CCCNCCNCCCNCC1 [Plerixafor]	93
Cc1ccc(C(=O)Nc2ccc(CN3CCN(C)CC3)c(C(F)(F)F)c2)cc1C#Cc1cnc2cccnn12 [Ponatinib]	42
COc1cc2nc(N3CCN(C(=O)c4ccco4)CC3)nc(N)c2cc1OC [Prazosin]	49
CCCOc1ccc(C(=O)OCCN(CC)CC)cc1N [Proparacaine]	88
CN(C)C(=O)Oc1ccc[n+](C)c1 [Pyridostigmine]	76
CCC(=O)NCC[C@@H]1CCc2ccc3c(c21)CCO3 [Ramelteon]	100
COc1ccccc1OCC(O)CN1CCN(CC(=O)Nc2c(C)cccc2C)CC1 (centres unmarked) [Ranolazine]	100
Cn1c([N+](=O)[O-])cnc1COC(N)=O [Ronidazole]	100
Nc1ccc(S(=O)(=O)Nc2ncccn2)cc1 [Sulfadiazine]	70
[H]/N=C(/N)NS(=O)(=O)c1ccc(N)cc1 [Sulfaguanidine]	84
Cc1nnc(NS(=O)(=O)c2ccc(N)cc2)s1 [Sulfamethizole]	94
CC1(C)CCC(C)(C)c2cc(NC(=O)c3ccc(C(=O)O)cc3)ccc21 [Tamibarotene]	100
